Test results taken from patent US20080241234A1, “PHARMACEUTICAL FORMULATIONS OF AN ANHYDRATE CRYSTAL FORM OF 2-(3-FLUORO-4-HYDROXYPHENYL)-7-VINYL-1,3-BENZOXAZOL-5-OL” (WYETH, priority 2006, published 2008).

Test: Crystal form conversion on suspending and stirring in a solvent at room temperature
Format: physicochemical
Source text: The anhydrate crystal form (Form E) can be converted to other crystal forms under suitable conditions. […] 6, 2006).

crystal form obtained after suspension and stirring in water (suspended and stirred in water at room temperature for seven days): converted to a hydrate crystal form
Structure (SMILES): C=Cc1cc(O)cc2nc(-c3ccc(O)c(F)c3)oc12 [Form E, 2-(3-fluoro-4-hydroxyphenyl)-7-vinyl-1,3-benzoxazol-5-ol]
crystal form obtained after suspension and stirring in ethanol or acetone (suspended and stirred in ethanol or acetone at room temperature for seven days): another anhydrate crystal form is obtained
